Results from patent publication US20260274955A1, “ANTIBODIES FOR TARGETING CD28 AND USES THEREOF” (Janux Therapeutics, Inc., priority 2023, published 2026).
Where two headings read alike, the source gives them in different places.

Columns and labels:
[1] = test system: anti-CD28 Fab (SEQ ID NOs: 202, 203); experiment: Kinetic binding via BLI: peptides to anti-CD28 Fab; conditions: for Off rate t½: Table 18, anti-CD28 Fab; for Kd / t½: binding to anti-CD28 Fab
Protocol: Kinetic binding of the peptides of Table 1 to Ab-1 was evaluated using biolayer interferometry (BLI). […] Ab-1 was titrated in solution and associated onto the peptide loaded sensor. After a short association period, sensors were transferred into buffer and the dissociation of bound Ab-1 was measured. Association and dissociation signals were recorded in real time and analyzed using a 1:1 binding model within the instrument software. Analysis using a 1:1 binding model enabled the calculation of the on and off rate constants as well as affinity, KD.
Kinetic binding of the peptides to anti-CD28 Fab (SEQ ID NOs: 202, 203) was evaluated using BLI as described above.

[2] = biological target: anti-CD28 scFv (SEQ ID NO: 35); experiment: Kinetic binding by bio-layer interferometry (Octet RED96): anti-CD28 scFv to peptides; parameters: species or system human; conditions: for Kd: CD28 scFv titrated 100-12.5 nM, 200 nM peptide load
anti-CD28 scFv (SEQ ID NO: 35), sequence (as listed by the source): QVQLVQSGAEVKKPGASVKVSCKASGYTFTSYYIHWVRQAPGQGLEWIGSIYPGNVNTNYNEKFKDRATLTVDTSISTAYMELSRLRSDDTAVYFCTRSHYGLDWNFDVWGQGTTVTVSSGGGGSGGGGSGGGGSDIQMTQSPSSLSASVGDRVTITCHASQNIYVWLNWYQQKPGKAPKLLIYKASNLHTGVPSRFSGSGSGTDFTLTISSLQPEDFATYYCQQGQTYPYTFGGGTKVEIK
Protocol: (§1) Briefly, streptavidin biosensors were loaded with biotinylated peptides and baselined in buffer. […] After a short association period, sensors were transferred into buffer and the dissociation of bound anti-CD28 scFv was measured. The timing and steps of the experiment are shown in the accompanying table. Association and dissociation signals were recorded in real time and analyzed using a 1:1 binding model within the instrument software. Analysis using a 1:1 binding model enabled the calculation of the on and off rate constants as well as affinity, KD.
as §1, with “KD. FIGS. 48A-48F illustrate kinetic binding of anti-CD28 scFv binding to peptides as measured by Octet. FIGS. 48G-48U illustrate kinetic binding of peptides to the anti-CD28 scFv as measured by Octet.” for “KD.”

[3] = biological target: anti-CD28 Fab (SEQ ID NOs: 202, 203); experiment: Competition ELISA: peptide inhibition of anti-CD28 Fab binding to plate-bound CD28 (also alanine scanning peptides); conditions: anti-CD28 Fab fixed at 1 nM
Protocol: Ab-1 fixed at 1 nanomolar (nM) concentration was pre-incubated with 0-100 micromolar (μM) titrated peptides. After a short pre-incubation period, the mixture of titrated peptide with fixed Ab-1 were added to the CD28 antigen coated plates. After a short incubation on the plates, bound Ab-1 was detected with a standard horse radish peroxidase conjugated secondary antibody.
(§2) The anti-CD28 Fab was fixed at a concentration of 1 nM and incubated with titrated 0-100 μM peptides.

[4] = biological target: anti-CD28 scFv (disulfide) (SEQ ID NO: 67); experiment: Competition ELISA: peptide inhibition of anti-CD28 scFv (disulfide) binding to plate-bound CD28
anti-CD28 scFv (disulfide) (SEQ ID NO: 67), sequence (as listed by the source): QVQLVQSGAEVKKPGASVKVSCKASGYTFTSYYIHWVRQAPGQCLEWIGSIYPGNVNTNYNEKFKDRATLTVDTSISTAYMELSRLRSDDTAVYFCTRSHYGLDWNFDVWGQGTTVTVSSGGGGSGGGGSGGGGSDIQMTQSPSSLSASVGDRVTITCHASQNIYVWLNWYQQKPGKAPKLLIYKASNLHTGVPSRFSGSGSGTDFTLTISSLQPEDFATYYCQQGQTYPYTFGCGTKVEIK
Protocol: […] After a short pre-incubation period, the mixture of titrated peptide with fixed Ab-1 were added to the CD28 antigen coated plates. After a short incubation on the plates, bound Ab-1 was detected with a standard horse radish peroxidase conjugated secondary antibody.
as §2

[5] = titrated 0-100 μM peptides, plate-bound CD28 antigen, read-out: anti-CD28 Fab Competition ELISA IC50
[6] = read-out: anti-CD28 scFv (disulfide) Competition ELISA IC50, anti-CD28 scFv fixed at 0.3 nM, titrated 0-100 μM peptides, plate-bound CD28 antigen
[7] = BLI Octet RED96, biotinylated peptide loaded on streptavidin sensor, anti-CD28 scFv 100-12.5 nM, 1:1 binding model
[8] = Table 17, 0-100 μM peptide, read-out: Competition ELISA IC50
[9] = Table 18, 0-100 μM peptide, read-out: Competition ELISA IC50
[10] = Table 19, anti-CD28 scFv (disulfide) fixed at 0.3 nM, 0-100 μM peptide, read-out: Competition ELISA IC50

anti-CD28 Fab (SEQ ID NOs: 202, 203), sequence (as listed by the source): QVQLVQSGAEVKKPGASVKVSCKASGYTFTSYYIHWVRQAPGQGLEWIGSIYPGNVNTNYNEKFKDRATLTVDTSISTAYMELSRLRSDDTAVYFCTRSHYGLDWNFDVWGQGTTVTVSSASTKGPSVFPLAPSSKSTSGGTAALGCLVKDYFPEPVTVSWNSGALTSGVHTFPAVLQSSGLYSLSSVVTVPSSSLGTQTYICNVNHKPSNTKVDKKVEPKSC
anti-CD28 Fab (SEQ ID NOs: 202, 203), sequence (as listed by the source): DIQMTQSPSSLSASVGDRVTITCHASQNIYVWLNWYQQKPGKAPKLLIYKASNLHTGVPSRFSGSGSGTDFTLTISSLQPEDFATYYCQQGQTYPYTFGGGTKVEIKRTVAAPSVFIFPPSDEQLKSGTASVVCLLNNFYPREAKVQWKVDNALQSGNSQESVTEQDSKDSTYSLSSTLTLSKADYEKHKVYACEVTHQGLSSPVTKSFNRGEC

## YCEGHLPEYRNKCL [Peptide-84, optimization library of Peptide-39]
[1]
  Off rate t½: 48 s
  Kd: 0.11 µM
  t½: 48 s

## MDWCPRERWVDCFF [Peptide-116]
[2]; Table 28, 1:1 model
  Kd: 0.377 µM
[2]; Table 28, CD28 scFv, 1:1 model
  kdis: 0.0123 s⁻¹
  kon: 32500 M⁻¹ s⁻¹

## YCAAHAWQYINKCL [Peptide-60, alanine scanning peptide of Peptide-39]
[3]; [5]
  IC50: > 100 µM
[4]; [6]
  IC50: > 100 µM

## YCEGHAPEYIAKCL [Peptide-73, optimization library of Peptide-39]
[1]
  Off rate t½: 24 s
  Kd: 0.831 µM
  t½: 24 s

## SCAAGASYAAPYCL [Peptide-55, alanine scanning peptide of Peptide-44]
[3]; [5]
  IC50: > 100 µM
[4]; [6]
  IC50: > 100 µM

## MDWCPLHMWHECFS [Peptide-141]
[2]; [7]
  kdis: 0.00497 s⁻¹
  kon: 39000 M⁻¹ s⁻¹

## MDWCPRDLWHECFA [Peptide-144]
[2]; [7]
  kdis: 0.00277 s⁻¹
  kon: 30000 M⁻¹ s⁻¹

## MDWCPRDLWHLCFS [Peptide-145]
[2]; [7]
  kdis: 0.00265 s⁻¹
  kon: 51100 M⁻¹ s⁻¹

## SCAAGASYAWAYCL [Peptide-56, alanine scanning peptide of Peptide-44]
[3]; [5]
  IC50: > 100 µM
[4]; [6]
  IC50: > 100 µM

## MDWCPRDMWDECFA [Peptide-147]
[2]; [7]
  kdis: 0.00433 s⁻¹
  kon: 28400 M⁻¹ s⁻¹

## YCEGHLPEYLAKCL [Peptide-79, optimization library of Peptide-39]
[1]
  Off rate t½: 60 s
  Kd: 0.0447 µM
  t½: 60 s

## SCAAAASYAWPYCL [Peptide-52, alanine scanning peptide of Peptide-44]
[3]; [5]
  IC50: > 100 µM
[4]; [6]
  IC50: > 100 µM

## MDWCPLYLWNECFN [Peptide-142]
[2]; [7]
  kdis: 0.00252 s⁻¹
  kon: 36700 M⁻¹ s⁻¹

## LCAAGFTYPWPLCL [Peptide-107, optimization library of Peptide-44]
[3]; [8]
  IC50: > 100 µM

## MHWCPVDLWYLCYN [Peptide-154]
[2]; [7]
  kdis: 0.00186 s⁻¹
  kon: 88200 M⁻¹ s⁻¹

## MDWCPRERWVDCFF [Peptide-156]
[2]; [7]
  kdis: 0.0115 s⁻¹
  kon: 41500 M⁻¹ s⁻¹

## MDWCPRDMWSECFA [Peptide-148]
[2]; [7]
  kdis: 0.0032 s⁻¹
  kon: 16700 M⁻¹ s⁻¹

## HCSGHHWLQVWKCF [Peptide-82, optimization library of Peptide-39]
[3]; [9]
  IC50: > 100 µM

## MDWCPIYLWSECFN [Peptide-139]
[2]; [7]
  kdis: 0.00153 s⁻¹
  kon: 29000 M⁻¹ s⁻¹

## YCEGHLPEYIWKCL [Peptide-87, optimization library of Peptide-39]
[1]
  Off rate t½: 54 s

## SCAAGASYAWPYCA [Peptide-58, alanine scanning peptide of Peptide-44]
[4]; [6]
  IC50: > 100 µM

## MNWCPKDIWYLCFN [Peptide-140]
[2]; [7]
  kdis: 0.00684 s⁻¹
  kon: 77000 M⁻¹ s⁻¹

## SCAAGASAAWPYCL [Peptide-54, alanine scanning peptide of Peptide-44]
[3]; [5]
  IC50: > 100 µM
[4]; [6]
  IC50: > 100 µM

## SCAAGASYAWPYCL [Peptide-44]
[4]; [10]
  IC50: > 100 µM

## MDWCPRDLWVHCFA [Peptide-1]
[2]; [7]
  kdis: 0.00154 s⁻¹
  kon: 36400 M⁻¹ s⁻¹

## YCEGHLPEYREKCL [Peptide-78, optimization library of Peptide-39]
[1]
  Off rate t½: 36 s
  t½: 36 s

## MDWCPRDMWSVCFS [Peptide-149]
[2]; [7]
  kdis: 0.00812 s⁻¹
  kon: 21700 M⁻¹ s⁻¹

## GYCHYWGDMVMWCG [Peptide-118]
[2]; Table 28, 1:1 model
  Kd: 0.017 µM
[2]; Table 28, CD28 scFv, 1:1 model
  kdis: 0.00167 s⁻¹
  kon: 98700 M⁻¹ s⁻¹

## MDWCPRSLWHECFA [Peptide-152]
[2]; [7]
  kdis: 0.00201 s⁻¹
  kon: 38900 M⁻¹ s⁻¹

## MDWCPIHLWHVCFN [Peptide-138]
[2]; [7]
  kdis: 0.00295 s⁻¹
  kon: 59100 M⁻¹ s⁻¹

## MDWCPVHLWSVCFA [Peptide-155]
[2]; [7]
  kdis: 0.00443 s⁻¹
  kon: 92300 M⁻¹ s⁻¹

## WCWDYKLWVPMTCP [Peptide-37]
[3]; Table 16, 0-100 μM peptide, read-out: Competition ELISA IC50
  IC50: > 100 µM
[4]; [10]
  IC50: > 100 µM

## YCAGHAWQAINKCL [Peptide-64, alanine scanning peptide of Peptide-39]
[3]; [5]
  IC50: > 100 µM
[4]; [6]
  IC50: > 100 µM

## MDWCPRDLWDLCFA [Peptide-143]
[2]; [7]
  kdis: 0.00351 s⁻¹
  kon: 35900 M⁻¹ s⁻¹

## YCWSHSPPFIKKCY [Peptide-83, optimization library of Peptide-39]
[3]; [9]
  IC50: > 100 µM

## YCAGHSPINIGKCL [Peptide-36]
[4]; [10]
  IC50: > 100 µM

## YCEGHLPEYIEKCL [Peptide-72, optimization library of Peptide-39]
[1]
  Off rate t½: 30 s
  Kd: 0.926 µM
  t½: 30 s

## YCAGAAWQYINKCL [Peptide-61, alanine scanning peptide of Peptide-39]
[3]; [5]
  IC50: > 100 µM
[4]; [6]
  IC50: > 100 µM

## MDWCPRDLWSECFF [Peptide-146]
[2]; [7]
  kdis: 0.0031 s⁻¹
  kon: 38800 M⁻¹ s⁻¹

## YCAGHAWQYINKCL [Peptide-39]
[4]; [10]
  IC50: > 100 µM
[1]
  Off rate t½: 42 s
  Kd: 2.02 µM
  t½: 36 s

## YCEGHLPEYIQKCL [Peptide-86, optimization library of Peptide-39]
[1]
  Off rate t½: 54 s
  t½: 60 s

## MDWCPIDLWNECFF [Peptide-137]
[2]; [7]
  kdis: 0.00369 s⁻¹
  kon: 51400 M⁻¹ s⁻¹

## YCAGHAWQYANKCL [Peptide-65, alanine scanning peptide of Peptide-39]
[4]; [6]
  IC50: > 100 µM

## YCAGHAWQYINACL [Peptide-67, alanine scanning peptide of Peptide-39]
[3]; [5]
  IC50: > 100 µM
[4]; [6]
  IC50: > 100 µM

## LCKPGVPYKWPTCL [Peptide-108, optimization library of Peptide-44]
[3]; [8]
  IC50: > 100 µM

## ACAGHAWQYINKCL [Peptide-59, alanine scanning peptide of Peptide-39]
[3]; [5]
  IC50: > 100 µM
[4]; [6]
  IC50: > 100 µM

## MDWCPRFMWDECFN [Peptide-150]
[2]; [7]
  kdis: 0.00364 s⁻¹
  kon: 27100 M⁻¹ s⁻¹

## MDWCPRHMWNYCFA [Peptide-151]
[2]; [7]
  kdis: 0.00218 s⁻¹
  kon: 61900 M⁻¹ s⁻¹

## MDWCPRYLWHVCFA [Peptide-153]
[2]; [7]
  kdis: 0.00187 s⁻¹
  kon: 88900 M⁻¹ s⁻¹
